From PubChem BioAssay (NCI)
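In this assay, cells in 96-well plates receive the compound at five concentrations for 48 hours. Endpoints are linearly interpolated between the surrounding concentrations. TGI denotes the concentration required for complete inhibition of growth.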

Key:
Assay in all cases: DTP human tumour cell line panel, 48 h
786-0 renal = test system: 786-0 renal
A498 renal = test system: A498 renal
A549 NSCLC = test system: A549 NSCLC
ACHN renal = test system: ACHN renal
BT-549 breast = test system: BT-549 breast
CAKI-1 renal = test system: CAKI-1 renal
CCRF-CEM leukemia = test system: CCRF-CEM leukemia
COLO 205 colon = test system: COLO 205 colon
DU-145 prostate = test system: DU-145 prostate
EKVX NSCLC = test system: EKVX NSCLC
HCC-2998 colon = test system: HCC-2998 colon
HCT-116 colon = test system: HCT-116 colon
HCT-15 colon = test system: HCT-15 colon
HL-60(TB) leukemia = test system: HL-60(TB) leukemia
HOP-62 NSCLC = test system: HOP-62 NSCLC
HOP-92 NSCLC = test system: HOP-92 NSCLC
HS 578T breast = test system: HS 578T breast
HT29 colon = test system: HT29 colon
IGROV1 ovarian = test system: IGROV1 ovarian
K-562 leukemia = test system: K-562 leukemia
KM12 colon = test system: KM12 colon
LOX IMVI melanoma = test system: LOX IMVI melanoma
M14 melanoma = test system: M14 melanoma
MALME-3M melanoma = test system: MALME-3M melanoma
MCF7 breast = test system: MCF7 breast
MDA-MB-231 breast = test system: MDA-MB-231 breast
MDA-MB-435 = test system: MDA-MB-435
MDA-N = test system: MDA-N
MOLT-4 leukemia = test system: MOLT-4 leukemia
NCI-H226 lung = test system: NCI-H226 lung
NCI-H23 lung = test system: NCI-H23 lung
NCI-H460 lung = test system: NCI-H460 lung
NCI-H522 lung = test system: NCI-H522 lung
NCI/ADR-RES ovarian = test system: NCI/ADR-RES ovarian
OVCAR-3 ovarian = test system: OVCAR-3 ovarian
OVCAR-4 ovarian = test system: OVCAR-4 ovarian
OVCAR-5 ovarian = test system: OVCAR-5 ovarian
OVCAR-8 ovarian = test system: OVCAR-8 ovarian
PC-3 prostate = test system: PC-3 prostate
RPMI-8226 leukemia = test system: RPMI-8226 leukemia
RXF 393 renal = test system: RXF 393 renal
SF-268 CNS = test system: SF-268 CNS
SF-295 CNS = test system: SF-295 CNS
SF-539 CNS = test system: SF-539 CNS
SK-MEL-2 melanoma = test system: SK-MEL-2 melanoma
SK-MEL-28 melanoma = test system: SK-MEL-28 melanoma
SK-MEL-5 melanoma = test system: SK-MEL-5 melanoma
SK-OV-3 ovarian = test system: SK-OV-3 ovarian
SN12C renal = test system: SN12C renal
SNB-19 CNS = test system: SNB-19 CNS
SNB-75 CNS = test system: SNB-75 CNS
SR leukemia = test system: SR leukemia
SW-620 colon = test system: SW-620 colon
T-47D breast = test system: T-47D breast
TK-10 renal = test system: TK-10 renal
U251 CNS = test system: U251 CNS
UACC-257 melanoma = test system: UACC-257 melanoma
UACC-62 melanoma = test system: UACC-62 melanoma
UO-31 renal = test system: UO-31 renal

## O=C(/C=C/NC(=O)OCc1ccccc1)OCc1ccccc1
786-0 renal
  TGI: > 100 µM
A498 renal
  TGI: > 100 µM
A549 NSCLC
  TGI: > 100 µM
ACHN renal
  TGI: > 100 µM
BT-549 breast
  TGI: > 100 µM
CAKI-1 renal
  TGI: > 100 µM
CCRF-CEM leukemia
  TGI: > 100 µM
COLO 205 colon
  TGI: > 100 µM
DU-145 prostate
  TGI: > 100 µM
EKVX NSCLC
  TGI: > 100 µM
HCC-2998 colon
  TGI: > 100 µM
HCT-116 colon
  TGI: > 100 µM
HCT-15 colon
  TGI: > 100 µM
HL-60(TB) leukemia
  TGI: > 100 µM
HOP-62 NSCLC
  TGI: > 100 µM
HOP-92 NSCLC
  TGI: > 100 µM
HS 578T breast
  TGI: > 100 µM
HT29 colon
  TGI: > 100 µM
IGROV1 ovarian
  TGI: > 100 µM
K-562 leukemia
  TGI: > 100 µM
KM12 colon
  TGI: > 100 µM
LOX IMVI melanoma
  TGI: > 100 µM
M14 melanoma
  TGI: > 100 µM
MALME-3M melanoma
  TGI: > 100 µM
MCF7 breast
  TGI: > 100 µM
MDA-MB-231 breast
  TGI: > 100 µM
MDA-MB-435
  TGI: > 100 µM
MDA-N
  TGI: > 100 µM
MOLT-4 leukemia
  TGI: > 100 µM
NCI-H226 lung
  TGI: > 100 µM
NCI-H23 lung
  TGI: > 100 µM
NCI-H460 lung
  TGI: > 100 µM
NCI-H522 lung
  TGI: > 100 µM
NCI/ADR-RES ovarian
  TGI: > 100 µM
OVCAR-3 ovarian
  TGI: > 100 µM
OVCAR-4 ovarian
  TGI: > 100 µM
OVCAR-5 ovarian
  TGI: > 100 µM
OVCAR-8 ovarian
  TGI: > 100 µM
PC-3 prostate
  TGI: > 100 µM
RPMI-8226 leukemia
  TGI: > 100 µM
RXF 393 renal
  TGI: > 100 µM
SF-268 CNS
  TGI: > 100 µM
SF-295 CNS
  TGI: > 100 µM
SF-539 CNS
  TGI: > 100 µM
SK-MEL-2 melanoma
  TGI: > 100 µM
SK-MEL-28 melanoma
  TGI: > 100 µM
SK-MEL-5 melanoma
  TGI: > 100 µM
SK-OV-3 ovarian
  TGI: > 100 µM
SN12C renal
  TGI: > 100 µM
SNB-19 CNS
  TGI: > 100 µM
SNB-75 CNS
  TGI: > 100 µM
SR leukemia
  TGI: > 100 µM
SW-620 colon
  TGI: > 100 µM
T-47D breast
  TGI: > 100 µM
TK-10 renal
  TGI: > 100 µM
U251 CNS
  TGI: > 100 µM
UACC-257 melanoma
  TGI: > 100 µM
UACC-62 melanoma
  TGI: > 100 µM
UO-31 renal
  TGI: > 100 µM

## CCOC(=O)/C=C(/C(=O)OCC)n1cc(C)c(=O)n(/C(=C/C(=O)OCC)C(=O)OCC)c1=O
786-0 renal
  TGI: 2.56 µM
A498 renal
  TGI: 36.8 µM
A549 NSCLC
  TGI: 31.8 µM
ACHN renal
  TGI: 4.08 µM
BT-549 breast
  TGI: 15.9 µM
CAKI-1 renal
  TGI: 2.14 µM
CCRF-CEM leukemia
  TGI: 1.53 µM
COLO 205 colon
  TGI: 2.87 µM
DU-145 prostate
  TGI: 26.6 µM
EKVX NSCLC
  TGI: 13.9 µM
HCC-2998 colon
  TGI: 22.1 µM
HCT-116 colon
  TGI: 4.88 µM
HCT-15 colon
  TGI: 4.01 µM
HL-60(TB) leukemia
  TGI: 0.674 µM
HOP-62 NSCLC
  TGI: 43.3 µM
HOP-92 NSCLC
  TGI: 2.91 µM
HS 578T breast
  TGI: 45.7 µM
HT29 colon
  TGI: 7.72 µM
IGROV1 ovarian
  TGI: 17 µM
K-562 leukemia
  TGI: 3.81 µM
KM12 colon
  TGI: 30.1 µM
LOX IMVI melanoma
  TGI: 7.59 µM
M14 melanoma
  TGI: 6.48 µM
MALME-3M melanoma
  TGI: 4.36 µM
MCF7 breast
  TGI: 5.5 µM
MDA-MB-231 breast
  TGI: 9.01 µM
MDA-MB-435
  TGI: 7.76 µM
MDA-N
  TGI: 13.7 µM
MOLT-4 leukemia
  TGI: 5.78 µM
NCI-H226 lung
  TGI: 12.6 µM
NCI-H23 lung
  TGI: 12.9 µM
NCI-H460 lung
  TGI: 37.1 µM
NCI-H522 lung
  TGI: 1.88 µM
NCI/ADR-RES ovarian
  TGI: 26.1 µM
OVCAR-3 ovarian
  TGI: 7.7 µM
OVCAR-4 ovarian
  TGI: > 22.3 µM
OVCAR-5 ovarian
  TGI: 14.3 µM
OVCAR-8 ovarian
  TGI: 13 µM
PC-3 prostate
  TGI: 12.3 µM
RPMI-8226 leukemia
  TGI: 4.52 µM
RXF 393 renal
  TGI: 3.73 µM
SF-268 CNS
  TGI: 32.8 µM
SF-295 CNS
  TGI: 33.5 µM
SF-539 CNS
  TGI: 23.5 µM
SK-MEL-2 melanoma
  TGI: 33 µM
SK-MEL-28 melanoma
  TGI: 5.04 µM
SK-MEL-5 melanoma
  TGI: 20.8 µM
SK-OV-3 ovarian
  TGI: 31.5 µM
SN12C renal
  TGI: 8.58 µM
SNB-19 CNS
  TGI: 36.3 µM
SNB-75 CNS
  TGI: 24 µM
SR leukemia
  TGI: 5.72 µM
SW-620 colon
  TGI: 3.03 µM
T-47D breast
  TGI: 7.86 µM
TK-10 renal
  TGI: 4.06 µM
U251 CNS
  TGI: 19.3 µM
UACC-257 melanoma
  TGI: 10.9 µM
UACC-62 melanoma
  TGI: 19.4 µM
UO-31 renal
  TGI: 10.8 µM
